US20080269298A1, “Benzimidazol-1-YL-thiophene compounds for the treatment of cancer” (priority 2002, published 2008)

Legend:
[1] = target: T1, PLK1 kinase domain (Homo sapiens, UniProt P53350); assay: Assay for Inhibition of PLK1 (SPA enzyme activity); type: biochemical; settings: 2 μM ATP, read-out: Ave pIC50 PLK Enzyme Inhibition (converted)
T1 construct: made in house; host or cells: baculovirus-infected T. ni insect cells

[2] = system: lung (H460) tumor cell line; assay: Methylene Blue Growth Inhibition Assay, H460; type: cell-based; settings: Homo sapiens, NCI-H460, 72 h; Cell Line H460, 3 days; read-out: MeB IC50
Method in brief: (§1)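 Seeded HFF, RKO or H460 cells treated 3 days with compound (0.3% DMSO), then stained with methylene blue; OD 620 nm, percent inhibition vs vehicle, IC50 by regression.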

[3] = system: colon (HCT116) tumor cell line; assay: Methylene Blue Growth Inhibition Assay, HCT116; type: cell-based; settings: Homo sapiens, HCT-116, 72 h; Cell Line HCT116, 3 days; read-out: MeB IC50
Method in brief: (§2)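 Methylene blue dye retained by cells after a 3-day, 37° C compound incubation in DMEM/10% FBS (0.3% DMSO) served as the biomass readout at 620 nm. IC50 values were interpolated by nonlinear regression against vehicle wells.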

[4] = system: Normal Human foreskin fibroblasts (HFF); assay: Methylene Blue Growth Inhibition Assay, HFF; type: cell-based; settings: 72 h, Cell Line HFF, 3 days, read-out: MeB IC50
Method in brief: as §1

[5] = system: breast tumor (MCF7) cell line; assay: Methylene Blue Growth Inhibition Assay, MCF7; type: cell-based; settings: Homo sapiens, 72 h; Cell Line MCF7, 3 days; read-out: MeB IC50
Method in brief: as §2

[6] = system: prostate (PC3) tumor cell line; assay: Methylene Blue Growth Inhibition Assay, PC3; type: cell-based; settings: Homo sapiens, 72 h; Cell Line PC3, 3 days; read-out: MeB IC50
Method in brief: as §2

[7] = system: colon (RKO) tumor cell line; assay: Methylene Blue Growth Inhibition Assay, RKO; type: cell-based; settings: Homo sapiens, 72 h, 3 days, read-out: MeB IC50
Method in brief: as §1

T1 sequence (P53350 21-346): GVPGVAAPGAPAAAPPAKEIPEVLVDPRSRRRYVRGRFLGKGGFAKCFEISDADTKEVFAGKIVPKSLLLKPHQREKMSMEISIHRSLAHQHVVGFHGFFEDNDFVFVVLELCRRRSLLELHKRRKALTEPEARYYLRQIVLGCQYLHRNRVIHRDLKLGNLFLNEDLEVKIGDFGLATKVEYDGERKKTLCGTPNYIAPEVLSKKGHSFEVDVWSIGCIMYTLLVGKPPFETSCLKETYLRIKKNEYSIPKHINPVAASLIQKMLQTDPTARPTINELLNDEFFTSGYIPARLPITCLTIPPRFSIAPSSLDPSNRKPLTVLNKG

SMILES | IC50 [1] [µM] | IC50 [2] [µM] | IC50 [3] [µM] | IC50 [5] [µM] | IC50 [6] [µM] | IC50 [7] [µM] | IC50 [4] [µM]
NC(=O)c1sc(-n2cnc3ccccc32)cc1CCc1ccccc1 [Example 130, 5-(1H-Benzimidazol-1-yl)-3-(2-phenylethyl)thiophene-2-carboxamide] | 0.1 to 10 | > 10 | 1 to 10 | 1 to 10 | > 10 | 1 to 10 | > 10
NC(=O)c1sc(-n2cnc3ccc(Br)cc32)cc1OCc1ccccc1C(F)(F)F [Example 62, 5-(6-Bromo-1H-benzimidazol-1-yl)-3-{[2-(trifluoromethyl)benzyl]-oxy}thiophene-2-carboxamide] | < 0.1 | < 1 | < 1 | < 1 | > 10 | < 1 | 1 to 10
COc1cc2ncn(-c3cc(OCc4cccc(N(C)C)c4)c(C(N)=O)s3)c2cc1OC [Example 90, 5-(5,6-Dimethoxy-1H-benzimidazol-1-yl)-3-{[3-(dimethylamino)benzyl]oxy}thiophene-2-carboxamide] | < 0.1 | 1 to 10 | 1 to 10 | 1 to 10 | > 10 | 1 to 10 | > 10
O=C(O)c1sc(-n2cnc3cc(Cl)c(Cl)cc32)cc1OCc1cccs1 [Example 80, 5-(5,6-Dichloro-1H-benzimidazol-1-yl)-3-(thien-2-ylmethoxy)-thiophene-2-carboxylic acid] | < 0.1 | > 10 | > 10 | > 10 | > 10 | > 10 | > 10
COc1cc2ncn(-c3cc(OCc4ccccc4-c4ccccc4)c(C(N)=O)s3)c2cc1OC [Example 93, 3-(1,1′-Biphenyl-2-ylmethoxy)-5-(5,6-dimethoxy-1H-benzimidazol-1-yl)thiophene-2-carboxamide] | 0.1 to 10 | > 10 | > 10 | > 10 | > 10 | > 10 | > 10
COC(=O)c1sc(-n2cnc3cc(OC)c(OC)cc32)cc1OS(=O)(=O)C(F)(F)F [Example 150, Methyl 5-(5,6-dimethoxy-1H-benzimidazol-1-yl)-3-{[(trifluoromethyl)sulfonyl]oxy}thiophene-2-carboxylate] | 0.1 to 10 | > 10 | > 10 | > 10 | > 10 | > 10 | > 10
COc1cc2ncn(-c3cc(OCC4CCCCO4)c(C(N)=O)s3)c2cc1OC (stereo not drawn) [Example 112, 5-(5,6-Dimethoxy-1H-benzimidazol-1-yl)-3-(tetrahydro-2H-pyran-2-ylmethoxy)thiophene-2-carboxamide] | 0.1 to 10 | 1 to 10 | > 10 | > 10 | > 10 | 1 to 10 | > 10

Further lines, with some results ahead:

IC50 [1] [µM] | IC50 [2] [µM] | IC50 [3] [µM] | IC50 [5] [µM] | IC50 [6] [µM] | IC50 [7] [µM] | SMILES | IC50 [4] [µM]
< 0.1 | 1 to 10 | 1 to 10 | 1 to 10 | > 10 | 1 to 10 | COc1cc2ncn(-c3cc(OCc4ccccc4C(C)=O)c(C(N)=O)s3)c2cc1OC [Example 105, 3-[(2-Acetylbenzyl)oxy]-5-(5,6-dimethoxy-1H-benzimidazol-1-yl)thiophene-2-carboxamide] | > 10
< 0.1 | > 10 | > 10 | > 10 | > 10 | > 10 | O=C(O)c1sc(-n2cnc3ccc(Cl)cc32)cc1OCc1ccc(F)cc1Cl [Example 70, 5-(6-Chloro-1H-benzimidazol-1-yl)-3-[(2-Chloro-4-fluorobenzyl)oxy]-thiophene-2-carboxylic acid] | > 10
< 0.1 | 1 to 10 | < 1 | 1 to 10 | 1 to 10 | 1 to 10 | COc1cc2ncn(-c3cc(OCc4ccccc4C(F)(F)F)c(C(N)=O)s3)c2cc1OCCN1CCOCC1 [Example 137, 5-(5-(Methyloxy)-6-{[2-(4-morpholinyl)ethyl]oxy}-1H-benzimidazol-1-yl)-3-({[2-(trifluoromethyl)phenyl]methyl}oxy)-2-thiophenecarboxamide] | > 10
< 0.1 | > 10 | > 10 | > 10 | > 10 | > 10 | COc1cc2ncn(-c3cc(OS(=O)(=O)c4ccccc4[N+](=O)[O-])c(C(N)=O)s3)c2cc1OC [Example 153, 2-(Aminocarbonyl)-5-(5,6-dimethoxy-1H-benzimidazol-1-yl)thien-3-yl 2-nitrobenzenesulfonate] | > 10
< 0.1 | < 1 | < 1 | < 1 | 1 to 10 | < 1 | COc1cc2ncn(-c3cc(OCc4ccccc4[N+](=O)[O-])c(C(N)=O)s3)c2cc1OC [Example 92, 5-(5,6-Dimethoxy-1H-benzimidazol-1-yl)-3-[(2-nitrobenzyl)oxy]thiophene-2-carboxamide] | 1 to 10
< 0.1 | 1 to 10 | 1 to 10 | > 10 | > 10 | > 10 | COC(=O)c1sc(-n2cnc3cc(OC)c(OC)cc32)cc1OS(=O)(=O)c1ccccc1[N+](=O)[O-] [Example 149] | > 10
< 0.1 | 1 to 10 | 1 to 10 | 1 to 10 | > 10 | 1 to 10 | NC(=O)c1sc(-n2cnc3cc4c(cc32)OCCCO4)cc1OCc1ccccc1C(F)(F)F [Example 89] | > 10
< 0.1 | 1 to 10 | 1 to 10 | 1 to 10 | > 10 | 1 to 10 | COc1cc2ncn(-c3cc(OCc4ccccc4C#N)c(C(N)=O)s3)c2cc1OC [Example 95, 3-[(2-Cyanobenzyl)oxy]-5-(5,6-dimethoxy-1H-benzimidazol-1-yl)thiophene-2-carboxamide] | > 10
< 0.1 | 1 to 10 | 1 to 10 | 1 to 10 | > 10 | 1 to 10 | COc1cc2ncn(-c3cc(OCc4cccc(N)c4)c(C(N)=O)s3)c2cc1OC [Example 96, 3-[(3-Aminobenzyl)oxy]-5-(5,6-dimethoxy-1H-benzimidazol-1-yl)thiophene-2-carboxamide] | > 10
< 0.1 | 1 to 10 | 1 to 10 | 1 to 10 | > 10 | 1 to 10 | NC(=O)c1sc(-n2cnc3cc4c(cc32)OCCO4)cc1OCc1ccccc1C(F)(F)F [Example 123, 5-(6,7-Dihydro-1H-[1,4]dioxino[2,3f]benzimidazol-1-yl)-3-{[2-(trifluoromethyl)benzyl]-oxy}thiophene-2-carboxamide] | 1 to 10
< 0.1 | 1 to 10 | 1 to 10 | 1 to 10 | 1 to 10 | 1 to 10 | COc1cc2ncn(-c3cc(OCc4cccc(I)c4)c(C(N)=O)s3)c2cc1OC [Example 94] | 1 to 10
